Results: article PMC7881583, “Novel fusion peptide‐mediated siRNA delivery using self‐assembled nanocomplex” (Journal of Nanobiotechnology, 2021)

Tested on: siRNA
Assay: Gel retardation assay (formation of siRNA/peptide nanocomplexes)
Type: binding
Details: any N/P ratio 1:1-100:1, 2% agarose gel
Description: The gel was visualized through a ChemiDoc™ XRS + System. […] Bars represented the average ± standard deviation. […] The gel was visualized through a gel documentation system.
GAPDH-siRNA was dissolved in HBSS as 1 µM, and all peptides were dissolved in HBSS or distilled water at 1–2 mg/mL. The sequences of all peptides are summarized in Additional file 1: Table S1. The fusion peptides designed in this study have a GCG linker between SPACE and the oligoarginine peptides. Fusion peptides and siRNAs in HBSS buffer formed the self-assembled nanocomplexes under incubation at room temperature (25°C) for 30 min with appropriate nitrogen/phosphate (N/P) ratio. The N/P ratio was derived from the molar ratio of amine groups in the cationic peptides to phosphate groups in the RNA.
The formation of siRNA/peptide nanocomplexes was confirmed by gel retardation assay. […] After adding 6× loading dye, the 12 µL nanocomplexes were loaded into the 2% (w/v) agarose gel prepared in 1× TAE buffer (40 mM tris, 20 mM acetic acid, 1 mM EDTA, pH 8.6) with 10,000× TopRed Nucleic Acid Gel Stain for visualization. Gel running was performed at 100 V for 30 min using the Mupid-2plus electrophoresis system (Optima Inc., Tokyo, Japan). Pictures of the electrophoretic mobility shift of the nanocomplexes were taken by the ChemiDoc™ XRS + System (Bio-Rad, CA, USA).

ACTGSTQHQCG [SPACE, skin permeating and cell entering peptide, …, artificial, reference compound]
retardation of the siRNA band: did not retard the siRNA band at all
